Data as given in US12016852B2, “Pyrrolidine glycosidase inhibitors” (Asceneuron SA, priority 2018, dated 2024).

Target: T1, Human O-GlcNAcase (His-Tagged hOGA) (Homo sapiens, UniProt O60502)
T1 sequence (O60502 1-916): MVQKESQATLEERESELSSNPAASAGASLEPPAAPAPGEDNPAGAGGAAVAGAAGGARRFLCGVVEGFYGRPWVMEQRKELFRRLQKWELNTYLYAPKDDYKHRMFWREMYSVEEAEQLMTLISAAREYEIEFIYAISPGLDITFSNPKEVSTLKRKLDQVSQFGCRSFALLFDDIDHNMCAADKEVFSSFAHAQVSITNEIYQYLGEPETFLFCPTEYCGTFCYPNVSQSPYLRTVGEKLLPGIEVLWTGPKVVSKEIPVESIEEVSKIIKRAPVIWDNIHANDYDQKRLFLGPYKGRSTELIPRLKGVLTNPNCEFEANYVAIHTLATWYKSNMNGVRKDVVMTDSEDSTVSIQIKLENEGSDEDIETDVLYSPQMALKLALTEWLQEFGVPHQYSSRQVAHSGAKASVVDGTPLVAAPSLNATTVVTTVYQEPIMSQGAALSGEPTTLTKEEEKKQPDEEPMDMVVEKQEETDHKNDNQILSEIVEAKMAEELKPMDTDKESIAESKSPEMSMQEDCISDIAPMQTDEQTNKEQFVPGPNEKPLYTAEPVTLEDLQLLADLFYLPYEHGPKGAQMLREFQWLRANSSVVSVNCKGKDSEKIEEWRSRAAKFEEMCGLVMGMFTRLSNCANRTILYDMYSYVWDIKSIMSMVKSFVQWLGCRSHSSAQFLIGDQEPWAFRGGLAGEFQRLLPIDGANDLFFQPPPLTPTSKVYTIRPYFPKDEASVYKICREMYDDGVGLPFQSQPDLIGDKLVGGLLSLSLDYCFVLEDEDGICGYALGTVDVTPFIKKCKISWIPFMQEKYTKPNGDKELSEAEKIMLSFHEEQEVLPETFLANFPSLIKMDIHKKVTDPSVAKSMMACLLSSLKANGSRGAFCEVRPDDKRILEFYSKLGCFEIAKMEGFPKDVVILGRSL
Experiment: Human O-GlcNAcase enzyme inhibition assay
Format: biochemical
Conditions: 20 nM His-Tagged hOGA, 10 μM FL-GlcNAc, McIlvaine's Buffer pH 6.5, 60 min at room temperature, fluorescence; read-out: OGA IC50
Procedure: Example B01: Human O-GlcNAcase Enzyme Inhibition Assay
5 μl of the appropriate concentration of a solution of inhibitor in Mcllvaine's Buffer (pH 6.5) in 2% DMSO (for a dose response curve calculation) is added into each well of a 384-well plate (Greiner, 781900). Then, 20 nM of His-Tagged hOGA and 10 μM of FL-GlcNAc (Fluorescein mono-beta-D-(2-deoxy-2-N-acetyl) glucopyranoside; Marker Gene Technologies Inc, M1485) were added to the 384-well plate for a final volume of 20 μl. After incubation for 60 min at room temperature, the reaction was terminated by the addition of 10 μL of stop buffer (200 mM glycine, pH 10.75). The level of fluorescence (λexc 485 nm; (λemm 520 nm) was read on a PHERAstar machine. The amount of fluorescence measured was plotted against the concentration of inhibitor to produce a sigmoidal dose response curve to calculate an IC50. All individual data was corrected by subtraction of the background (Thiamet 3 uM=100% inhibition) whilst 0.5% DMSO was considered as the control value (no inhibition).

With `Cc1cc(-c2cnn(C)c2)ccc1CN1CCCC1c1ccc2c(c1)OCCO2` (racemic) [Example 45, 4-(4-((2-(2,3-dihydrobenzo[b] [1,4]dioxin-6-yl)pyrrolidin-1-yl)methyl)-3-methylphenyl)-1-methyl-1H-pyrazole] the IC50 was 50 to 200 nM.

`c1cc(-c2ccc(CN3CCCC3c3ccc4c(c3)OCCO4)cc2)ccn1` (racemic) [Example 46, 4-(4-((2-(2,3-dihydrobenzo[b] [1,4]dioxin-6-yl)pyrrolidin-1-yl)methyl)phenyl)pyridine] was tested, and the IC50 was 200 to 1000 nM.

`Cc1cc(-c2ccncc2)ccc1CN1CCCC1c1ccc2c(c1)OCCO2` (racemic) [Example 49, 4-(4-((2-(2,3-dihydrobenzo[b] [1,4]dioxin-6-yl)pyrrolidin-1-yl)methyl)-3-methylphenyl)pyridine] gave an IC50 of 200 to 1000 nM.

`CC(=O)Nc1ncc(CN2CCCC2c2ccc3c(c2)OCCO3)s1` (racemic) [Example 50, N-(5-((2-(2,3-dihydrobenzo[b] [1,4]dioxin-6-yl)pyrrolidin-1-yl)methyl)thiazol-2-yl)acetamide] showed an IC50 of 200 to 1000 nM.

`Brc1cnn(-c2ccc(CN3CCCC3c3ccc4c(c3)OCCO4)cc2)c1` (racemic) [Example 51, 4-bromo-1-(4-((2-(2,3-dihydrobenzo[b] [1,4]dioxin-6-yl)pyrrolidin-1-yl)methyl)phenyl)-1H-pyrazole] showed an IC50 of 50 to 200 nM.

Work on `N#Cc1cnn(-c2ccc(CN3CCCC3c3ccc4c(c3)OCCO4)cc2)c1` (racemic) [Example 52, 1-(4-((2-(2,3-dihydrobenzo[b] [1,4]dioxin-6-yl)pyrrolidin-1-yl)methyl)phenyl)-1H-pyrazole-4-carbonitrile] yielded an IC50 of 50 to 200 nM.

For `Cc1noc(C)c1-c1ccc(CN2CCCC2c2ccc3c(c2)OCCO3)cc1` (racemic) [Example 54, 4-(4-((2-(2,3-dihydrobenzo[b] [1,4]dioxin-6-yl)pyrrolidin-1-yl)methyl)phenyl)-3,5-dimethylisoxazole], the IC50 was 1000 to 10000 nM.

`Cc1nn(C)c(C)c1-c1ccc(CN2CCCC2c2ccc3c(c2)OCCO3)cc1` (racemic) [Example 55, 4-(4-((2-(2,3-dihydrobenzo[b] [1,4]dioxin-6-yl)pyrrolidin-1-yl)methyl)phenyl)-1,3,5-trimethyl-1H-pyrazole] gave an IC50 of 1000 to 10000 nM.

In the case of `Cc1cc(-c2cccnc2C)ccc1CN1CCCC1c1ccc2c(c1)OCCO2` (racemic) [Example 56, 3-(4-((2-(2,3-dihydrobenzo[b] [1,4]dioxin-6-yl)pyrrolidin-1-yl)methyl)-3-methylphenyl)-2-methylpyridine], the IC50 is reported as 200 to 1000 nM.

In the case of `Cc1cc(-c2ccncc2C)ccc1CN1CCCC1c1ccc2c(c1)OCCO2` (racemic) [Example 57, 4-(4-((2-(2,3-dihydrobenzo[b] [1,4]dioxin-6-yl)pyrrolidin-1-yl)methyl)-3-methylphenyl)-3-methylpyridine], the IC50 is reported as 200 to 1000 nM.

`c1csc(-c2ccc(CN3CCCC3c3ccc4c(c3)OCCO4)cc2)n1` (racemic) [Example 58, 2-(4-((2-(2,3-dihydrobenzo[b] [1,4]dioxin-6-yl)pyrrolidin-1-yl)methyl)phenyl)thiazole] showed an IC50 of 50 to 200 nM.

For `Cc1cnc(-c2ccc(CN3CCCC3c3ccc4c(c3)OCCO4)cc2)s1` (racemic) [Example 59, 2-(4-((2-(2,3-dihydrobenzo[b] [1,4]dioxin-6-yl)pyrrolidin-1-yl)methyl)phenyl)-5-methylthiazole], the IC50 was 200 to 1000 nM.

`N#Cc1cnc(-c2ccc(CN3CCCC3c3ccc4c(c3)OCCO4)cc2)s1` (racemic) [Example 60, 2-(4-((2-(2,3-dihydrobenzo[b] [1,4]dioxin-6-yl)pyrrolidin-1-yl)methyl)phenyl)thiazole-5-carbonitrile] showed an IC50 of 50 to 200 nM.

Work on `O=C1COCCN1c1ccc(CN2CCCC2c2ccc3c(c2)OCCO3)cc1` (racemic) [Example 61, 4-(4-((2-(2,3-dihydrobenzo[b] [1,4]dioxin-6-yl)pyrrolidin-1-yl)methyl)phenyl) morpholin-3-one] yielded an IC50 of 200 to 1000 nM.

`O=C1CCCCN1c1ccc(CN2CCCC2c2ccc3c(c2)OCCO3)cc1` (racemic) [Example 62, 1-(4-((2-(2,3-dihydrobenzo[b] [1,4]dioxin-6-yl)pyrrolidin-1-yl)methyl)phenyl)piperidin-2-one] gave an IC50 of 200 to 1000 nM.

`CS(=O)(=O)c1cncc(-c2ccc(CN3CCCC3c3ccc4c(c3)OCCO4)cc2)c1` (racemic) [Example 63, 3-(4-((2-(2,3-dihydrobenzo[b] [1,4]dioxin-6-yl)pyrrolidin-1-yl)methyl)phenyl)-5-(methylsulfonyl)pyridine] was tested, and the IC50 was 50 to 200 nM.

`c1cnc(-c2ccc(CN3CCCC3c3ccc4c(c3)OCCO4)cc2)cn1` (racemic) [Example 64, 2-(4-((2-(2,3-dihydrobenzo[b] [1,4]dioxin-6-yl)pyrrolidin-1-yl)methyl)phenyl)pyrazine] showed an IC50 of 50 to 200 nM.

With `CS(=O)(=O)CCOc1ccc(CN2CCCC2c2ccc3c(c2)OCCO3)cc1` (racemic) [Example 65, 2-(2,3-dihydrobenzo[b] [1,4]dioxin-6-yl)-1-(4-(2-(methylsulfonyl)ethoxy)benzyl)pyrrolidine] the IC50 was 1000 to 10000 nM.

`O=S1(=O)CCN(c2ccc(CN3CCCC3c3ccc4c(c3)OCCO4)cc2)CC1` (racemic) [Example 66, 4-(4-((2-(2,3-dihydrobenzo[b] [1,4]dioxin-6-yl)pyrrolidin-1-yl)methyl)phenyl)thiomorpholine 1,1-dioxide] was tested, and the IC50 was 200 to 1000 nM.

Work on `O=C1CSCCN1c1ccc(CN2CCCC2c2ccc3c(c2)OCCO3)cc1` (racemic) [Example 67, 4-(4-((2-(2,3-dihydrobenzo[b] [1,4]dioxin-6-yl)pyrrolidin-1-yl)methyl)phenyl)thiomorpholin-3-one] yielded an IC50 of 200 to 1000 nM.

With `Cc1csc(-c2ccc(CN3CCCC3c3ccc4c(c3)OCCO4)cc2)n1` (racemic) [Example 68, 2-(4-((2-(2,3-dihydrobenzo[b] [1,4]dioxin-6-yl)pyrrolidin-1-yl)methyl)phenyl)-4-methylthiazole] the IC50 was 200 to 1000 nM.

Work on `c1cnc(-c2ccc(CN3CCCC3c3ccc4c(c3)OCCO4)cc2)nc1` (racemic) [Example 69, 2-(4-((2-(2,3-dihydrobenzo[b] [1,4]dioxin-6-yl)pyrrolidin-1-yl)methyl)phenyl) pyrimidine] yielded an IC50 of 50 to 200 nM.

`Cc1cnccc1-c1ccc(CN2CCCC2c2ccc3c(c2)OCCO3)cc1C` (racemic) [Example 70, 4-(4-((2-(2,3-dihydrobenzo[b] [1,4]dioxin-6-yl)pyrrolidin-1-yl)methyl)-2-methylphenyl)-3-methylpyridine] was tested, and the IC50 was 1000 to 10000 nM.

With `Cc1cc(CN2CCCC2c2ccc3c(c2)OCCO3)ccc1-c1cccnc1C` (racemic) [Example 71, 3-(4-((2-(2,3-dihydrobenzo[b] [1,4]dioxin-6-yl)pyrrolidin-1-yl)methyl)-2-methylphenyl)-2-methylpyridine] the IC50 was 200 to 1000 nM.

With `Cn1cc(-c2ccc(CN3CCCC3c3ccc4c(c3)OCO4)cc2)cn1` (racemic) [Example 72, 4-(4-((2-(benzo[d] [1,3]dioxol-5-yl)pyrrolidin-1-yl)methyl)phenyl)-1-methyl-1H-pyrazole] the IC50 was 200 to 1000 nM.

With `O=c1[nH]nc(-c2ccc(CN3CCCC3c3ccc4c(c3)OCCO4)cc2)o1` (racemic) [Example 76, 5-(4-((2-(2,3-dihydrobenzo[b] [1,4]dioxin-6-yl)pyrrolidin-1-yl)methyl)phenyl)-1,3,4-oxadiazol-2(3H)-one] the IC50 was 200 to 1000 nM.

With `c1cnnc(-c2ccc(CN3CCCC3c3ccc4c(c3)OCCO4)cc2)c1` (racemic) [Example 144] the IC50 was 50 to 200 nM.

`CN1CCN(c2ccc(CN3CCCC3c3ccc4c(c3)OCCO4)cc2)CC1` (racemic) [Example 146] gave an IC50 of 1000 to 10000 nM.

For `Cc1cc(CN2CCCC2c2ccc3c(c2)OCCO3)ccc1-c1ccncc1` (racemic) [Example 147], the IC50 was 1000 to 10000 nM.

With `CS(=O)(=O)c1cnc(-c2ccc(CN3CCCC3c3ccc4c(c3)OCCO4)cc2)nc1` (racemic) [Example 149] the IC50 was 50 to 200 nM.

`Cn1cc(-c2ccc(CN3CCCC3c3ccc4cccnc4c3)cc2)cn1` (racemic) [Example 150] was tested, and the IC50 was 50 to 200 nM.

With `COc1cccc(-c2ccc(CN3CCCC3c3ccc4c(c3)OCCO4)cc2)n1` (racemic) [Example 151] the IC50 was 200 to 1000 nM.
